Measured values reported in patent US20080207614A1, “QUINAZOLINE DERIVATIVES FOR THE TREATMENT AND PREVENTION OF DIABETES AND OBESITY” (SK CHEMICALS CO., LTD., priority 2004, published 2008).

Tested on: C2C12 muscle cells
Experiment: Analysis of glucose absorption (2-deoxyglucose) in differentiated C2C12 muscle cells
Format: cell-based
Conditions: test materials 10 μM, times relative to control group
Method: C2C12 muscle cells were cultured in DMEM (Dulbecco's modified Eagle's medium) containing 10% bovine calf serum. When the cell density increased to about 85 to 90%, the culture medium was replaced with 1% bovine calf serum and cell differentiation was induced for 6 days. Completely differentiated cells were cultured for 3 hours with Krebs-Ringer buffer (KRB) containing 5 mM glucose. The test materials were added at a concentration of 10 μM. 30 minutes later, 0.2 μCi 2-deoxyglucose was added. KRB was removed 20 minutes later and the cells were washed for 3 times with cold PBS. The cells were lysed with 0.5N NaOH and counted using a radioactive counter.

SMILES	Glucose absorption
OCCNc1nc(-c2ccncc2)nc2ccccc12 [Compound 258, 2-(2-Pyridino-4-ylquinazolino-4-ylamino)-ethanol]	1.3
Fc1cccc(CCNc2nc(Cc3ccccc3)nc3ccccc23)c1 [Compound 220, (2-Benzylquinazolino-4-yl)-[2-(3-fluorophenyl)-ethyl]-amine]	2.5
CCSc1nc(NCCCN2CCCCC2C)c2ccccc2n1 (centres unmarked) [Compound 48, (2-Ethylsulfanylquinazolino-4-yl)-[3-(2-methyl-piperidino-1-yl)-propyl]-amine]	1.0
c1ccc(CN2CCC(Nc3nc(-c4ccccc4)nc4ccccc34)CC2)cc1 [Compound 105, (1-Benzyl-piperidino-4-yl)-(2-phenylquinazolino-4-yl)-amine]	1.2
c1ccc(-c2nc(NCc3cccs3)c3ccccc3n2)cc1 [Compound 59]	1.2
CCSc1nc(NCCOCCO)c2ccccc2n1 [Compound 50, 2-[2-(2-Ethylsulfanylquinazolino-4-ylamino)-ethoxy]-ethanol]	1.2
c1ccc(CNc2nc(-c3ccccc3)nc3ccccc23)cc1 [Compound 86, Benzyl-(2-phenylquinazolino-4-yl)-amine]	1.4
CCSc1nc(NCCc2ccccn2)c2ccccc2n1 [Compound 46, (2-Ethylsulfanylquinazolino-4-yl)-(2-pyridino-2-ylethyl)-amine]	1.1
OCCCCCNc1nc(-c2ccccc2)nc2ccccc12 [Compound 85, 5-(2-Phenylquinazolino-4-ylamino)-pentane-1-ol]	1.0
c1ccc(CCCCNc2nc(-c3ccncc3)nc3ccccc23)cc1 [Compound 252, (4-Phenylbutyl)-(2-pyridino-4-ylquinazolino-4-yl)-amine]	0.9
COc1cc(OC)c(CNc2nc(-c3ccccc3)nc3ccccc23)c(OC)c1 [Compound 337, (2-Phenylquinazolino-4-yl)-(2,4,6-trimethoxybenzyl)-amine]	1.3
c1ccc(CCNc2nc(Cc3ccccc3)nc3ccccc23)cc1 [Compound 215, (2-Benzylquinazolino-4-yl)-phenethylamine]	2.2
CC(C)c1ccc(Nc2nc(-c3ccccc3)nc3ccccc23)cc1 [Compound 72, (4-Isopropyl-phenyl)-(2-phenylquinazolino-4-yl)-amine]	1.1
OC(CNc1nc(-c2ccccc2)nc2ccccc12)c1ccccc1 (centres unmarked) [Compound 146, 1-Phenyl-2-(2-phenylquinazolino-4-ylamino)-ethanol]	2.3
COc1cccc(OC)c1CNc1nc(-c2ccccc2)nc2ccccc12 [Compound 154, (2,6-Dimethoxybenzyl)-(2-phenylquinazolino-4-yl)-amine]	2.5
Fc1cccc(CNc2nc(-c3cccnc3)nc3ccccc23)c1 [Compound 243, (3-Fluorobenzyl)-(2-pyridino-3-ylquinazolino-4-yl)-amine]	1.4
c1ccc(CCCCNc2nc(-c3ccccc3)nc3ccccc23)cc1 [Compound 52, (4-Phenylbutyl)-(2-phenylquinazolino-4-yl)-amine]	1.3
c1ccc2c(CNc3nc(-c4ccncc4)nc4ccccc34)cccc2c1 [Compound 253, Naphthaleno-1-ylmethyl-(2-pyridino-4-ylquinazolino-4-yl)-amine]	1.3
CCSc1nc(NCCCN2CCOCC2)c2ccccc2n1 [Compound 36, (2-Ethylsulfanylquinazolino-4-yl)-(3-morpholino-4-ylpropyl)-amine]	1.4
c1ccc(CCNc2nc(-c3cccnc3)nc3ccccc23)cc1 [Compound 239, Phenethyl-(2-pyridino-3-ylquinazolino-4-yl)-amine]	0.5
Clc1ccc(-c2nc(NCc3cccc4ccccc34)c3ccccc3n2)cc1 [Compound 265, [2-(4-Chlorophenyl)-quinazolino-4-yl]-naphthaleno-1-ylmethylamine]	1.1
COc1ccc(CNc2nc(-c3cccnc3)nc3ccccc23)cc1 [Compound 237, (4-Methoxybenzyl)-(2-pyridino-3-ylquinazolino-4-yl)-amine]	0.9
Fc1cccc(CNc2nc(-c3ccncc3)nc3ccccc23)c1 [Compound 255, (3-Fluorobenzyl)-(2-pyridino-4-ylquinazolino-4-yl)-amine]	1.3
Clc1ccc(CNc2nc(-c3ccccc3)nc3ccccc23)cc1 [Compound 88, (4-Chlorobenzyl)-(2-phenylquinazolino-4-yl)-amine]	1.1
c1ccc(Oc2ccccc2Nc2nc(-c3ccccc3)nc3ccccc23)cc1 [Compound 80, (2-Phenoxy-phenyl)-(2-phenylquinazolino-4-yl)-amine]	1.0

SMILES	Glucose absorption
CCSc1nc(NCCN2CCCC2)c2ccccc2n1 [Compound 45, (2-Ethylsulfanylquinazolino-4-yl)-(2-pyrrolidino-1-ylethyl)-amine]	1.1
CCCCCCCCCCCCCCCCNc1nc(SCC)nc2ccccc12 [Compound 43, (2-Ethylsulfanylquinazolino-4-yl)-hexadecylamine]	1.1
CC(C)(C)c1nc(NCc2cccc(F)c2)c2ccccc2n1 [Compound 195, (2-tert-Butylquinazolino-4-yl)-(3-fluorobenzyl)-amine]	1.2
Fc1cccc(CCNc2nc(-c3ccncc3)nc3ccccc23)c1 [Compound 256, [2-(3-Fluorophenyl)-ethyl]-(2-pyridino-4-ylquinazolino-4-yl)-amine]	0.6
Clc1ccc(CCNc2nc(-c3ccccc3)nc3ccccc23)c(Cl)c1 [Compound 127, [2-(2,4-Dichlorophenyl)-ethyl]-(2-phenylquinazolino-4-yl)-amine]	1.4
COc1cc(CNc2nc(-c3ccccc3)nc3ccccc23)cc(OC)c1 [Compound 92, (3,5-Dimethoxybenzyl)-(2-phenylquinazolino-4-yl)-amine]	1.4
COc1ccc(CNc2nc(Cc3ccccc3)nc3ccccc23)cc1 [Compound 213, (2-Benzylquinazolino-4-yl)-(4-methoxybenzyl)-amine]	1.4
CC(C)(C)c1nc(NCc2cccc(C(F)(F)F)c2)c2ccccc2n1 [Compound 190, (2-tert-Butylquinazolino-4-yl)-(3-trifluoromethylbenzyl)-amine]	1.2
Cc1nc(NCCOCCO)c2ccccc2n1 [Compound 173, 2-[2-(2-Methylquinazolino-4-ylamino)-ethoxy]-ethanol]	1.3
CCSc1nc(NCCN2CCCCC2)c2ccccc2n1 [Compound 44, (2-Ethylsulfanylquinazolino-4-yl)-(2-piperidino-1-ylethyl)-amine]	1.3
c1cncc(-c2nc(NCc3cccc4ccccc34)c3ccccc3n2)c1 [Compound 241, Naphthaleno-1-ylmethyl-(2-pyridino-3-ylquinazolino-4-yl)-amine]	1.2
FC(F)(F)c1cccc(CNc2nc(-c3ccccc3)nc3ccccc23)c1 [Compound 66, (2-Phenylquinazolino-4-yl)-(3-trifluoromethylbenzyl)-amine]	1.3
C=CCNc1nc(SCC)nc2ccccc12 [Compound 42, Allyl-(2-ethylsulfanylquinazolino-4-yl)-amine]	1.1
c1ccc(-c2nc(NCCCN3CCOCC3)c3ccccc3n2)cc1 [Compound 156, (3-Morpholino-4-ylpropyl)-(2-phenylquinazolino-4-yl)-amine]	1.1
CCCCN(CCO)c1nc(-c2ccccc2)nc2ccccc12 [Compound 157, 2-[Butyl-(2-phenylquinazolino-4-yl)-amino]-ethanol]	2.0
OCCNc1nc(Cc2ccccc2)nc2ccccc12 [Compound 222, 2-(2-Benzylquinazolino-4-ylamino)-ethanol]	1.2
Fc1cccc(CCNc2nc(-c3cccnc3)nc3ccccc23)c1 [Compound 244, [2-(3-Fluorophenyl)-ethyl]-(2-pyridino-3-ylquinazolino-4-yl)-amine]	0.4
Fc1cccc(CCNc2nc(-c3ccc(Cl)cc3)nc3ccccc23)c1 [Compound 268, [2-(4-Chlorophenyl)-quinazolino-4-yl]-[2-(3-fluorophenyl)-ethyl]-amine]	1.1
O=[N+]([O-])c1ccc(CONc2nc(-c3ccccc3)nc3ccccc23)cc1 [Compound 161, O-(4-Nitrobenzyl)-N-(2-phenylquinazolino-4-yl)-hydroxylamine]	1.1
c1ccc(-c2nc(NC3CCCC3)c3ccccc3n2)cc1 [Compound 95, Cyclopentyl-(2-phenylquinazolino-4-yl)-amine]	1.2
CCSc1nc(NCC(C)C)c2ccccc2n1 [Compound 21, (2-Ethylsulfanylquinazolino-4-yl)-isobutylamine]	1.2
c1coc(-c2nc(NCc3ccc4c(c3)OCO4)c3ccccc3n2)c1 [Compound 341, Benzo[1,3]dioxol-5-ylmethyl-(2-furano-2-ylquinazolino-4-yl)-amine]	0.8
Fc1ccccc1CNc1nc(-c2ccccc2)nc2ccccc12 [Compound 94, (2-Fluorobenzyl)-(2-phenylquinazolino-4-yl)-amine]	1.3
c1ccc(CNc2nc(-c3ccncc3)nc3ccccc23)cc1 [Compound 247, Benzyl-(2-pyridino-4-ylquinazolino-4-yl)-amine]	1.3
COc1ccc(OC)c(CNc2nc(Cc3ccccc3)nc3ccccc23)c1 [Compound 334, (2-Benzylquinazolino-4-yl)-(2,5-dimethoxybenzyl)-amine]	1.1
